Test results from patent US11629165B2, “Molecules for targeting ribosomes and ribosome-interacting proteins, and uses thereof” (Immagina Biotechnology S.r.l., priority 2018, dated 2023).

Legend:
Type in all cases: cell-based
MCF7 cells [1] = assay: Probe labelling after puromycin/CHX treatment, CuAAC Cy3-azide, in-gel fluorescence; conditions: MCF7, puromycin 20 and 100 μM 2 hours; 3PB 100 μM or 3PBis 50 μM, 10 min
Description: Next, we asked if the labelling is sensitive on puromycin treatment (i.e. dependent on ribosome activity). To do that, we first treated MCF7 cell with puromycin followed by 10 min incubation with 3PB or 3PBis. When used in minimal amounts, puromycin can be incorporated in neosynthesized proteins^25, while high concentrations as well as long incubation times, fully block translation. We first define the concentration that allows puromycin to be incorporated in the nascent peptide chain (i.e. 20 μM), and the range of concentrations that completely depress translation in our biological model (i.e. 50 μM, 100 μM and 200 μM, FIG. 10a). We treat MCF7 cells with both 20 and 100 μM puromycin for 2 hours before adding 3PB (100 μM, 10 min) or 3PBis (50 μM, 10 min). Probe-labeled proteins were coupled to a Cy3-azide reporter tag using CuAAC chemistry, separated by SDS-PAGE and detected by in-gel fluorescence scanning. We observed about 50% reduction of the labelling at 65 kDa after puromycin treatment for both probes (FIG. 5c-d). […] To better understand if the labelling is related to the activity of the ribosomal peptidyl transferase centre (PTC), we pre-treated cells with high concentrations of CHX (350 μM) before adding puromycin (100 μM) to fully block the ribosome catalytic activity^8. […]

[2] = system: cellular proteins of HEK-293 and MCF7 cell lines; assay: 3Px probe protein labelling, UV irradiation, anti-puromycin immunoblot
Description: For our initial analysis, we treated HEK-293 and MCF7 cell lines in complete culture medium with the 3PB probe (10 μM) for 10 min, followed by irradiation for 5 min on ice (total power: 0.75 J/cm2). We first assessed 3PB labeling of cellular proteins using SDS-PAGE analysis. […] Then, we compared the labelling activity of 3PB, 3PA and 3PBis in HEK293 and MCF7 cells, adding the probes before or after cell lysis. In the latter case, each probe is incubated for 1 h in the cytoplasmic cell extract at 4° C., followed by UV irradiation (0.75 J/cm^2) of the treated lysate. […] Therefore, both 3PB and 3PBis show additional bands with MW=˜50 kDa, when reacted in the cell lysate, with respect to the situation when probes are incubated with growing cells (FIG. 6a). […] This is presumably due to the higher hydrophobicity of the 3PBis probe and a consequent better cell membrane penetration (FIG. 7).
To test 3PN and 3PO activity, we treated MCF7 cells with different concentrations of the two drugs for 10 min, followed by UV-356 irradiation.
Reaction in cell culture: MCF7 or HEK-293 cells were grown to 80% of confluence and treated with CHX (10 μg/mL, 5 min, 37° C.) and then with the probe (10 min, 37 C). Cells were then washed with cold PBS (containing CHX 10 μg/mL), placed on ice and irradiated under a UV lamp (BLX-365, 5×8 W) at 365 nm for 5 min (0.75 J/cm^2) followed by lysis with hypotonic cytoplasmic buffer. Reaction in the cell lysate: HEK-293 or MCF7 cells were treated with CHX (10 μg/mL, 5 min). After hypotonic lysis and precipitation of nuclei and cellular debris by centrifugations at 18000 g, 4° C., 5 min, the supernatant was diluted to A260=1 a.u/μL with 10 mM NaCl, 10 mM MgCl2, 20 μg/mL cycloheximide, 10 mM Hepes, pH 7 in DEPC water, to a final volume of 150 μL. The diluted lysate was then incubated with the reactive probe for 1 hour in a 12-well plate and then UV-irradiated (BLX-365) at 365 nm for 5 min (0.75 J/cm2).
Cell lysates were prepared as described above. Proteins were separated by SDS-polyacrylamide gel electrophoresis and transferred onto PVDF membranes. […]

MCF7 cells [3] = assay: Polysome profiling of probe-treated cells; conditions: MCF7, 50 μM, 10 min
Description: To better understand the effect of 3Px on the global translation efficiency, we compared the polysome profiles from DMSO and probes-treated cells. By treating MCF7 cells with 50 μM 3PBis or 3PB for 10 min, we observed a 10% reduction of the polysome/80S ratio (calculated by comparing the area under the 80S peak and the combined area under the polysome peaks, FIG. 11a). This effect is independent from the UV-treatment. Incubation of 3PB and 3PBis for longer times (7 hours or 18 hours) results in a depression of the polysome/80S area ratio of >50%, meaning that treatments with 3PBis can depress translation, increasing the 80S pick and reducing heavy polyribosomes (FIG. 11b).
Cells were incubated for 5 minutes with cycloheximide 10 μg/mL at 37° C. to trap the ribosomes on the mRNAs. Cells were then washed with PBS complemented with cycloheximide (10 μg/mL) and scraped directly on the plate with 300 μL of lysis buffer (10 mM NaCl, 10 mM MgCl2, 10 mM Tris-HCl, pH 7.5, 1% Triton X-100, 1% sodium deoxycholate, […], 5 U/mL DNAse I, 200 U/mL RNase inhibitor, and 10 μg/mL cycloheximide, protease inhibitor). Nuclei and cellular debris were removed by three consecutive centrifugations (800 g, 5 min at 4° C.). […] The fraction corresponding to the 40S, 60S and 80S peaks and those corresponding to polysomes were collected monitoring the absorbance at 254 nm. […]

28S ribosomal RNA = assay: Labelling of rRNA by 3PBis, Cy3 in-gel fluorescence; conditions: MCF7, Cy3 conjugation, total RNA agarose gel
Description: FIG. 20. 3PBis-ribosome interaction and labelling of 28S rRNA. MCF7 cells were incubated with 3PBis, fixed and conjugated with Cy3. After extraction, total RNA was run in agarose gel and stained with Syber gold or visualized by in-gel fluorescence scanning.
We investigated the possibility that 3Px molecules directly reacts in the ribosome itself. If 3Px enters the ribosome as puromycin does, it should bind only the large ribosomal subunit, and in particular the rRNA 28S that form the catalytic pocket of the ribosome.

[4] = system: ATP-binding site of GRP78; assay: Competition with VER-155008 on probe labelling; conditions: MCF7, VER-155008 100 μM 1 hour before probe
Description: In total, 114 protein targets were identified from in-column digestion (called data set 1, n=4), 204 targets from in-gel digestion (called data set 2, n=4) and 1085 from in-bead digestion (called data set 3, n=2, FIG. 12c). The 3PB-beads pull down reflects the “double band” pattern observed with the incubation of 3PB/3PBis in the cell lysate (FIG. 12b). To increase the stringency of our in-beads digestion data set, we performed an enrichment analysis over control Peg-beads (n=2) and we identified 333 proteins setting a cut-off fold-enrichment (FC)≥1.3 between 3PB- and Peg-beads, while 166 proteins are identified with a FC≥2.5. By using the less stringent filter (FC≥1.3) and looking for proteins in common in the three data set, we identified 15 proteins as putative 3PB targets. These factors are known to be involved in tRNAs selection and ribosome elongation (eEF1A, eEF2, eEF4G), ribosome structure (RPL18), protein folding (HSP5A, HSP90AB1, PPIA), metabolism (PHGFH, ENO1, GAPDH, ALB), RNA processing (HNRNPK) and cellular structure (KRT2, KRT10, ACTB). […] After pull-down assay using avidin-magnetic beads (FIG. 12e and FIG. 13a) we observed the presence of the lower HSPA5/GRP78 band, while the upper band (although dominant in the input) was not detected. […]

MCF7 cells [5] = assay: Puromycin concentration effect on translation, puromycin immunoblot; conditions: MCF7, 2 hours
Description: FIG. 10. Effect of ribosome inhibitors on 3PB/3PBis binding. (a) Immunoblot of puromycin on total protein extracts from, MCF7 cell treated with increasing concentrations of puromycin (incubation time: 2 hours). CHX+Puro: 350 μM CHX before puromycin treatment (20, 50, 100, 200 μM). 3PBis treatment: (50 μM, 10 min); −, not treatment. (b) On the left, immunoblot with anti-puromycin antibody on total protein extracts from MCF7 cells treat with the indicated drugs. CHX, 350 μM, 5 min; Puromycin, 100 μM, 2 hours; 3PB, 50 μM, 10 min. On the right, CuAAC coupling with Biotin-azide was performed on the cell lysate before total protein extract and SDS-PAGE. The staining of the membrane was performed with Streptavidin-HRP. (c) Sketch that summarize the effect of puromycin treatment on the 3PB-3PBis labelling.
Next, we asked if the labelling is sensitive on puromycin treatment (i.e. dependent on ribosome activity). To do that, we first treated MCF7 cell with puromycin followed by 10 min incubation with 3PB or 3PBis. When used in minimal amounts, puromycin can be incorporated in neosynthesized proteins^25, while high concentrations as well as long incubation times, fully block translation. […] Probe-labeled proteins were coupled to a Cy3-azide reporter tag using CuAAC chemistry, separated by SDS-PAGE and detected by in-gel fluorescence scanning. […]

C#CCOCCC(=O)NCCOCCOCCNC(=O)N[C@@H](Cc1ccc(OC)cc1)C(=O)N[C@H]1C(OC(=O)OCCC2(C)N=N2)C(n2cnc3c(N(C)C)ncnc32)O[C@@H]1COC(=O)OCCC1(C)N=N1 (some centres unmarked) [3PBis]
reduction of the labelling at 65 kDa after puromycin treatment (MCF7 cells [1]): about 50%
protein labeling signal ([2]; HEK293 and MCF7, probes added before or after cell lysis, UV 0.75 J/cm2): concentration-dependent increases in protein labeling
functional (binding) activity ([2]; depending on position of UV-active diazirine on ribose): possess the functional activity
reduction of the polysome/80S ratio (MCF7 cells [3]): 10%
interaction with 28S rRNA (28S ribosomal RNA): directly interact with the 28S ribosomal RNA
reduction of probe labelling by VER-155008 [4]: 1.2 ×

C#CCOc1cc(C2(C(F)(F)F)N=N2)ccc1C(=O)N[C@@H](Cc1ccc(OC)cc1)C(=O)N[C@H]1[C@@H](O)[C@H](n2cnc3c(N(C)C)ncnc32)O[C@@H]1CO [3PN]
labelling efficiency after anisomycin and arsenite pre-treatment ([2]; MCF7, FIG. 8a): strong reduction

COc1ccc(C[C@H](N)C(=O)N[C@H]2[C@@H](O)[C@H](n3cnc4c(N(C)C)ncnc43)O[C@@H]2CO)cc1 [puromycin, Puromycin]
concentration that allows puromycin to be incorporated in the nascent peptide chain (MCF7 cells [5]): 20 µM
